In patent US9518018B2, “3-alkoxy, thioalkyl and amino-4-amino-6-(substituted)picolinates and their use as herbicides” (Dow AgroSciences LLC, priority 2011, dated 2016):

Experiments:
Experiment in all cases: Post-Emergent Test I herbicidal activity
Format in all cases: in vivo
[1] = test system: CHEAL: lambsquarters (Chenopodium album); conditions: Chenopodium album, post-emergence, 336 h, read-out: Visual Growth Reduction (%)-14 Days after Application CHEAL; for pest or weed control at 70 g/ha: Table 3, 70 g ai/ha; for pest or weed control at 140 g/ha: Table 3, 140 g ai/ha
Procedure: (§1) Seeds or nutlets of the desired test plant species were planted in Sun Gro Metro-Mix® 360 planting mixture, which typically has a pH of 6.0 to 6.8 and an organic matter content of about 30 percent, in plastic pots with a surface area of 64 square centimeters. When required to ensure good germination and healthy plants, a fungicide treatment and/or other chemical or physical treatment was applied. The plants were grown for 7-21 d in a greenhouse with an approximate 15 h photoperiod which was maintained at about 23-29° C. during the day and 22-28° C. during the night. Nutrients and water were added on a regular basis and supplemental lighting was provided with overhead metal halide 1000-Watt lamps as necessary. The plants were employed for testing when they reached the first or second true leaf stage.
(§2) A weighed amount, determined by the highest rate to be tested, of each test compound was placed in a 25 mL glass vial and was dissolved in 4 mL of a 97:3 v/v mixture of acetone and DMSO to obtain concentrated stock solutions. […] The concentrated stock solutions obtained were diluted with 20 mL of an aqueous mixture containing acetone, water, isopropyl alcohol, DMSO, Atplus 411F crop oil concentrate, and Triton® X-155 surfactant in a 48.5:39:10:1.5:1.0:0.02 v/v ratio to obtain spray solutions containing the highest application rates. Additional application rates were obtained by serial dilution of 12 mL of the high rate solution into a solution containing 2 mL of 97:3 v/v mixture of acetone and DMSO and 10 mL of an aqueous mixture containing acetone, water, isopropyl alcohol, DMSO, Atplus 411F crop oil concentrate, and Triton X-155 surfactant in a 48.5:39:10:1.5:1.0:0.02 v/v ratio to obtain ½×, ¼×, ⅛× and 1/16× rates of the high rate. Compound requirements are based upon a 12 mL application volume at a rate of 187 liters per hectare (L/ha). Formulated compounds were applied to the plant material with an overhead Mandel track sprayer equipped with 8002E nozzles calibrated to deliver 187 L/ha over an application area of 0.503 square meters at a spray height of 18 inches (43 cm) above the average plant canopy height. Control plants were sprayed in the same manner with the solvent blank.
(§3) The treated plants and control plants were placed in a greenhouse as described above and watered by subirrigation to prevent wash-off of the test compounds. After 14 d, the condition of the test plants as compared with that of the untreated plants was determined visually and scored on a scale of 0 to 100 percent where 0 corresponds to no injury and 100 corresponds to complete kill.
(§4) By applying the well-accepted probit analysis as described by J. Berkson in Journal of the […], 48, 565 (1953) and by D. Finney in “Probit Analysis” Cambridge University Press (1952), the above data can be used to calculate GR20, GR50 and GR80 values, which are defined as growth reduction factors that correspond to the effective dose of herbicide required to kill or control 20 percent, 50 percent or 80 percent, respectively, of a target plant.

[2] = test system: ABUTH: velvetleaf (Abutilon theophrasti); conditions: Abutilon theophrasti, post-emergence, 336 h, read-out: Visual Growth Reduction (%)-14 Days after Application ABUTH; for pest or weed control at 70 g/ha: Table 3, 70 g ai/ha; for pest or weed control at 140 g/ha: Table 3, 140 g ai/ha
Procedure: as §1, §2, §3, §4

[3] = test system: EPHHL: wild poinsettia (Euphorbia heterophylla); conditions: post-emergence, 336 h, read-out: Visual Growth Reduction (%)-14 Days after Application EPHHL; for pest or weed control at 70 g/ha: Table 3, 70 g ai/ha; for pest or weed control at 140 g/ha: Table 3, 140 g ai/ha
Procedure: as §1, §2, §3, §4

[4] = test system: ECHCG: barnyardgrass (Echinochloa crus-galli); conditions: post-emergence, 336 h, read-out: Visual Growth Reduction (%)-14 Days after Application ECHCG; for pest or weed control at 70 g/ha: Table 3, 70 g ai/ha; for pest or weed control at 140 g/ha: Table 3, 140 g ai/ha
Procedure: as §1, §2, §3, §4

ZEAMX: corn (Zea mays) = conditions: Zea mays, post-emergence, 336 h, read-out: Visual Growth Reduction (%)-14 Days after Application ZEAMX; for pest or weed control at 70 g/ha: Table 3, 70 g ai/ha; for pest or weed control at 140 g/ha: Table 3, 140 g ai/ha
Procedure: as §1, §2, §3, §4

[5] = test system: ORYSA: rice (Oryza sativa); conditions: post-emergence, 336 h, read-out: Visual Growth Reduction (%)-14 Days after Application ORYSA; for pest or weed control at 70 g/ha: Table 3, 70 g ai/ha; for pest or weed control at 140 g/ha: Table 3, 140 g ai/ha
Procedure: as §1, §2, §3, §4

[6] = test system: CYPES: yellow nutsedge (Cyperus esculentus); conditions: post-emergence, 336 h, read-out: Visual Growth Reduction (%)-14 Days after Application CYPES; for pest or weed control at 70 g/ha: Table 3, 70 g ai/ha; for pest or weed control at 140 g/ha: Table 3, 140 g ai/ha
Procedure: as §1, §2, §3, §4

COc1ccc(-c2nc(C(=O)O)c(OC)c(N)c2F)cn1 [Compound 78, 4-amino-3-fluoro-5,6′-dimethoxy-[2,3′-bipyridine]-6-carboxylic acid]
pest or weed control at 70 g/ha [1]: 97%
pest or weed control at 70 g/ha [2]: 80%
pest or weed control at 70 g/ha [3]: 80%
pest or weed control at 70 g/ha [4]: 85%
pest or weed control at 70 g/ha (ZEAMX: corn (Zea mays)): 80%
pest or weed control at 70 g/ha [5]: 50%
pest or weed control at 70 g/ha [6]: 80%

COc1c(C(=O)O)nc(-c2ccc(Cl)c(Cl)c2)c(F)c1N [Compound 79]
pest or weed control at 70 g/ha [1]: 100%
pest or weed control at 70 g/ha [2]: 80%
pest or weed control at 70 g/ha [3]: 95%
pest or weed control at 70 g/ha [4]: 70%
pest or weed control at 70 g/ha (ZEAMX: corn (Zea mays)): 80%
pest or weed control at 70 g/ha [5]: 15%
pest or weed control at 70 g/ha [6]: 90%

COC(=O)c1nc(C(C)(F)F)cc(N)c1OC [Compound 81, methyl 4-amino-6-(1,1-difluoroethyl)-3-methoxypicolinate]
pest or weed control at 140 g/ha [1]: 80%
pest or weed control at 140 g/ha [2]: 10%
pest or weed control at 140 g/ha [3]: 60%
pest or weed control at 140 g/ha [4]: 0%
pest or weed control at 140 g/ha (ZEAMX: corn (Zea mays)): 0%
pest or weed control at 140 g/ha [5]: 0%
pest or weed control at 140 g/ha [6]: 0%

COc1c(N)cc(C(C)(F)F)nc1C(=O)O [Compound 82, 4-amino-6-(1,1-difluoroethyl)-3-methoxypicolinic acid]
pest or weed control at 140 g/ha [1]: 85%
pest or weed control at 140 g/ha [2]: 20%
pest or weed control at 140 g/ha [3]: 80%
pest or weed control at 140 g/ha [4]: 0%
pest or weed control at 140 g/ha (ZEAMX: corn (Zea mays)): 0%
pest or weed control at 140 g/ha [5]: 0%
pest or weed control at 140 g/ha [6]: 0%

COC(=O)c1nc(C(C)F)cc(N)c1OC (stereo not drawn) [Compound 83, methyl 4-amino-6-(1-fluoroethyl)-3-methoxypicolinate]
pest or weed control at 140 g/ha [1]: 0%
pest or weed control at 140 g/ha [2]: 0%
pest or weed control at 140 g/ha [3]: 0%
pest or weed control at 140 g/ha [4]: 0%
pest or weed control at 140 g/ha (ZEAMX: corn (Zea mays)): 0%
pest or weed control at 140 g/ha [5]: 0%
pest or weed control at 140 g/ha [6]: 0%

COc1c(N)cc(C(C)F)nc1C(=O)O (stereo not drawn) [Compound 84, 4-amino-6-(1-fluoroethyl)-3-methoxypicolinic acid]
pest or weed control at 140 g/ha [1]: 30%
pest or weed control at 140 g/ha [2]: 10%
pest or weed control at 140 g/ha [3]: 0%
pest or weed control at 140 g/ha [4]: 0%
pest or weed control at 140 g/ha (ZEAMX: corn (Zea mays)): 0%
pest or weed control at 140 g/ha [5]: 0%
pest or weed control at 140 g/ha [6]: 0%

CCOC(=O)c1nc(-c2ccc(Cl)cc2F)cc(N)c1SCC(F)(F)F [Compound 89, Ethyl 4-amino-6-(4-chloro-2-fluorophenyl)-3-((2,2,2-trifluoroethyl)thio)picolinate]
pest or weed control at 140 g/ha [1]: 70%
pest or weed control at 140 g/ha [2]: 30%
pest or weed control at 140 g/ha [3]: 90%
pest or weed control at 140 g/ha [4]: 0%
pest or weed control at 140 g/ha (ZEAMX: corn (Zea mays)): 0%
pest or weed control at 140 g/ha [5]: 0%
pest or weed control at 140 g/ha [6]: 0%

COC(=O)c1nc(C(F)F)cc(N)c1OC [Compound 92]
pest or weed control at 140 g/ha [1]: 95%
pest or weed control at 140 g/ha [2]: 40%
pest or weed control at 140 g/ha [3]: 70%
pest or weed control at 140 g/ha [4]: 0%
pest or weed control at 140 g/ha (ZEAMX: corn (Zea mays)): 0%
pest or weed control at 140 g/ha [5]: 0%
pest or weed control at 140 g/ha [6]: 0%

C=Cc1nc(C(=O)O)c(OC)c(N)c1F [Compound 95, 4-amino-5-fluoro-3-methoxy-6-vinylpicolinic acid]
pest or weed control at 140 g/ha [1]: 60%
pest or weed control at 140 g/ha [2]: 0%
pest or weed control at 140 g/ha [3]: 30%
pest or weed control at 140 g/ha [4]: 0%
pest or weed control at 140 g/ha (ZEAMX: corn (Zea mays)): 0%
pest or weed control at 140 g/ha [5]: 0%
pest or weed control at 140 g/ha [6]: 0%
